Patent publication US20200216441A1, “PESTICIDALLY ACTIVE HETEROCYCLIC DERIVATIVES WITH SULFUR CONTAINING SUBSTITUENTS” (SYNGENTA PARTICIPATIONS AG, priority 2017, published 2020)

How the values were obtained:
[1] = tested on: Euschistus heros (Neotropical Brown Stink Bug); experiment: whole plant or invertebrate; assay type: in vivo; conditions: 120 h, application rate of 200 ppm, N2 nymphs on sprayed soybean leaves, 5 days after infestation, read-out: effect in at least one of the two categories (mortality or growth inhibition)
[2] = tested on: Myzus persicae (Green Peach Aphid); experiment: whole plant or invertebrate; assay type: in vivo; conditions: 144 h, test rate of 24 ppm, systemic, roots of infested pea seedlings in test solution, 6 days
[3] = tested on: Plutella xylostella (Diamond Back Moth); experiment: whole plant or invertebrate; assay type: in vivo; conditions: 120 h, application rate of 200 ppm, L2 larvae on treated artificial diet, 5 days after infestation, read-out: effect in at least one of the two categories (mortality or growth inhibition)
[4] = tested on: Myzus persicae (Green Peach Aphid); experiment: whole plant or invertebrate; conditions: foliar, 144 h
[5] = tested on: Diabrotica Balteata (Corn Root Worm); experiment: Diabrotica balteata (Corn Root Worm); conditions: in Zea mays, 96 h, read-out: effect in at least one of the two categories (mortality or growth inhibition)
[6] = tested on: Spodoptera littoralis (Egyptian Cotton Leaf Worm); experiment: whole plant or invertebrate; conditions: in Gossypium barbadense, foliar, 72 h, read-out: control (mortality, anti-feeding effect, growth inhibition)

CCS(=O)(=O)c1cc(OC(F)(F)C(=O)N(C)C)cnc1-c1nc2cc(C(F)(F)F)ncc2n1C [Compound P6, 2-[[5-ethylsulfonyl-6-[3-methyl-6-(trifluoromethyl)imidazo[4,5-c]pyridin-2-yl]-3-pyridyl]oxy]-2,2-difluoro-N,N-dimethyl-acetamide]
≥ 80%: percent effect (mortality or growth inhibition) at 200 ppm [1] | mortality at 24 ppm [2] | percent effect (mortality or growth inhibition) at 200 ppm [3] | mortality at 200 ppm [4] | mortality at 200 ppm [5]

CCSc1cc(OC(C)C)cnc1-c1nc2cc(S(=O)(=O)C(F)(F)F)ncc2n1C [Compound P73, 2-(3-ethylsulfanyl-5-isopropoxy-2-pyridyl)-3-methyl-6-(trifluoromethylsulfonyl)imidazo[4,5-c]pyridine]
≥ 80%: percent effect (mortality or growth inhibition) at 200 ppm [1] | percent effect (mortality or growth inhibition) at 200 ppm [3] | mortality at 200 ppm [4] | mortality at 200 ppm [6] | mortality at 200 ppm [5]

CCOc1cnc(-c2nc3cc(C(F)(F)F)ncc3n2C)c(S(=O)(=O)CC)c1 [Compound P12, 2-(5-ethoxy-3-ethylsulfonyl-2-pyridyl)-3-methyl-6-(trifluoromethyl)imidazo[4,5-c]pyridine]
≥ 80%: mortality at 24 ppm [2] | percent effect (mortality or growth inhibition) at 200 ppm [3] | mortality at 200 ppm [4] | mortality at 200 ppm [6] | mortality at 200 ppm [5]

CCS(=O)(=O)c1cc(O[C@H]2C[C@H](OC)C2)cnc1-c1nc2cc(C(F)(F)F)ncc2n1C [Compound P45, 2-[3-ethylsulfonyl-5-(3-methoxycyclobutoxy)-2-pyridyl]-3-methyl-6-(trifluoromethyl)imidazo[4,5-c]pyridine]
≥ 80%: percent effect (mortality or growth inhibition) at 200 ppm [1] | mortality at 24 ppm [2] | percent effect (mortality or growth inhibition) at 200 ppm [3] | mortality at 200 ppm [4] | mortality at 200 ppm [6]

CCOC(=O)Oc1cnc(-c2nc3cc(C(F)(F)F)ncc3n2C)c(S(=O)(=O)CC)c1 [Compound P84, ethyl [5-ethylsulfonyl-6-[3-methyl-6-(trifluoromethyl)imidazo[4,5-c]pyridin-2-yl]-3-pyridyl] carbonate]
≥ 80%: mortality at 200 ppm [6]

CCS(=O)(=O)c1cc(OC(C)C)ccc1-c1nc2cc(C(F)(F)F)ncc2n1C [Compound P108, 2-(2-ethylsulfonyl-4-isopropoxy-phenyl)-3-methyl-6-(trifluoromethyl)imidazo[4,5-c]pyridine]
≥ 80%: percent effect (mortality or growth inhibition) at 200 ppm [1] | percent effect (mortality or growth inhibition) at 200 ppm [3] | mortality at 200 ppm [4] | mortality at 200 ppm [6] | mortality at 200 ppm [5]

CCS(=O)(=O)c1cc(O/N=C(\C)c2cc(F)cc(F)c2)cnc1-c1nc2cc(C(F)(F)F)ncc2n1C [Compound P96, (E)-1-(3,5-difluorophenyl)-N-[[5-ethylsulfonyl-6-[3-methyl-6-(trifluoromethyl)imidazo[4,5-c]pyridin-2-yl]-3-pyridyl]oxy]ethanimine]
≥ 80%: percent effect (mortality or growth inhibition) at 200 ppm [1] | percent effect (mortality or growth inhibition) at 200 ppm [3] | mortality at 200 ppm [6] | mortality at 200 ppm [5]

CCS(=O)(=O)c1cc(OS(=O)(=O)C(F)(F)F)cnc1-c1nc2cc(C(F)(F)F)ncc2n1C [Compound P92, [5-ethylsulfonyl-6-[3-methyl-6-(trifluoromethyl)imidazo[4,5-c]pyridin-2-yl]-3-pyridyl] trifluoromethanesulfonate]
≥ 80%: mortality at 200 ppm [6]

CCS(=O)(=O)c1cc(OC(F)(F)F)cnc1-c1nc2cc(C(F)(F)F)ncc2n1C [Compound P98, 2-[3-ethylsulfonyl-5-(trifluoromethoxy)-2-pyridyl]-3-methyl-6-(trifluoromethyl)imidazo[4,5-c]pyridine]
≥ 80%: percent effect (mortality or growth inhibition) at 200 ppm [1] | percent effect (mortality or growth inhibition) at 200 ppm [3] | mortality at 200 ppm [6] | mortality at 200 ppm [5]

CCSc1cc(OCC(F)F)cnc1-c1nc2cc(C(F)(F)F)ncc2n1C [Compound P81, 2-[5-(2,2-difluoroethoxy)-3-ethylsulfanyl-2-pyridyl]-3-methyl-6-(trifluoromethyl)imidazo[4,5-c]pyridine]
≥ 80%: percent effect (mortality or growth inhibition) at 200 ppm [1] | mortality at 24 ppm [2] | percent effect (mortality or growth inhibition) at 200 ppm [3] | mortality at 200 ppm [6] | mortality at 200 ppm [5]

CCSc1cc(OC(C)C)cnc1-c1nc2cc(SC(F)(F)F)ncc2n1C [Compound P74, 2-(3-ethylsulfanyl-5-isopropoxy-2-pyridyl)-3-methyl-6-(trifluoromethylsulfanyl)imidazo[4,5-c]pyridine]
≥ 80%: percent effect (mortality or growth inhibition) at 200 ppm [1] | percent effect (mortality or growth inhibition) at 200 ppm [3] | mortality at 200 ppm [4] | mortality at 200 ppm [6] | mortality at 200 ppm [5]

C#CC(C)(C)Oc1cnc(-c2nc3cc(C(F)(F)F)ncc3n2C)c(SCC)c1 [Compound P82, 2-[5-(1,1-dimethylprop-2-ynoxy)-3-ethylsulfanyl-2-pyridyl]-3-methyl-6-(trifluoromethyl)imidazo[4,5-c]pyridine]
≥ 80%: percent effect (mortality or growth inhibition) at 200 ppm [1] | mortality at 200 ppm [6] | mortality at 200 ppm [5]

CCS(=O)(=O)c1cc(OCC(C)=O)cnc1-c1nc2cc(C(F)(F)F)ncc2n1C [Compound P65, 1-[[5-ethylsulfonyl-6-[3-methyl-6-(trifluoromethyl)imidazo[4,5-c]pyridin-2-yl]-3-pyridyl]oxy]propan-2-one]
≥ 80%: percent effect (mortality or growth inhibition) at 200 ppm [1] | mortality at 24 ppm [2] | percent effect (mortality or growth inhibition) at 200 ppm [3] | mortality at 200 ppm [4] | mortality at 200 ppm [5]

CCS(=O)(=O)c1cc(OC2(C)COC2)cnc1-c1nc2cc(C(F)(F)F)ncc2n1C [Compound P4, 2-[3-ethylsulfonyl-5-(3-methyloxetan-3-yl)oxy-2-pyridyl]-3-methyl-6-(trifluoromethyl)imidazo[4,5-c]pyridine]
≥ 80%: percent effect (mortality or growth inhibition) at 200 ppm [1] | mortality at 24 ppm [2] | percent effect (mortality or growth inhibition) at 200 ppm [3] | mortality at 200 ppm [4] | mortality at 200 ppm [5]

CCS(=O)(=O)c1cc(OCC2CCC2)cnc1-c1nc2cc(C(F)(F)F)ncc2n1C [Compound P69, 2-[5-(cyclobutylmethoxy)-3-ethylsulfonyl-2-pyridyl]-3-methyl-6-(trifluoromethyl)imidazo[4,5-c]pyridine]
≥ 80%: percent effect (mortality or growth inhibition) at 200 ppm [1] | mortality at 200 ppm [4] | mortality at 200 ppm [6] | mortality at 200 ppm [5]

CCSc1cc(OC(C)C)cnc1-c1nc2cc(C(F)(F)F)ncc2n1C [Compound P27, 2-(3-ethylsulfanyl-5-isopropoxy-2-pyridyl)-3-methyl-6-(trifluoromethyl)imidazo[4,5-c]pyridine]
≥ 80%: percent effect (mortality or growth inhibition) at 200 ppm [3] | mortality at 200 ppm [4] | mortality at 200 ppm [6] | mortality at 200 ppm [5]

CCS(=O)(=O)c1cc(OC2COC2)cnc1-c1nc2cc(C(F)(F)F)ncc2n1C [Compound P1, 2-[3-ethylsulfonyl-5-(oxetan-3-yloxy)-2-pyridyl]-3-methyl-6-(trifluoromethyl)imidazo[4,5-c]pyridine]
≥ 80%: percent effect (mortality or growth inhibition) at 200 ppm [1] | mortality at 24 ppm [2] | percent effect (mortality or growth inhibition) at 200 ppm [3] | mortality at 200 ppm [4] | mortality at 200 ppm [5]
